Assay results as given in patent publication US20250099465A1, “REMIBRUTINIB FOR USE IN THE TREATMENT OF HIDRADENITIS SUPPURATIVA” (NOVARTIS AG, priority 2022, published 2025).
Where “and” joins values, the source holds several entries; their conditions need not be identical. Identical values can stand only once. Like-named read-outs stand apart in the source and are kept apart here.

Key:
[1] = human, in vivo; cited from earlier work
[2] = Phase 2b randomized, double-blind, placebo-controlled core study in CSU patients; assay type: in vivo
Method: In a Phase 2b, randomized, double-blind, placebo-controlled trial evaluating the efficacy and safety of LOU064 over 12 weeks in patients inadequately controlled by […], with at least moderately active chronic spontaneous urticaria (CSU), patients received LOU064 10 mg q.d. (once daily), 35 mg q.d., 100 mg q.d., 10 mg b.i.d. (twice daily), 25 mg b.i.d., 100 mg b.i.d., or placebo (1:1:1:1:1:1:1 ratio).
(Table 5) In the long-term exposure of the ES (median 35.14 wks, N=183), the proportion of patients with at least one adverse effect (AE) on remibrutinib treatment (57.4% [n=105]) was similar to the CS (presented through for any remibrutinib dose) (58.1% [n=155]; median 12.14 wks, N=267). In the ES, there were 4 serious adverse effects (SAEs), 6 AEs leading to treatment discontinuation and no deaths. The incidences of AEs by […] (SOC) reported in the ES and CS were similar: infections and infestations (23.0% and 24.0%), followed by skin/subcutaneous tissue disorder (17.5% and 16.9%) (Table 5). […] Incidence of AESI in the ES such as infections (23%), bleeding (4.4%) and cytopenias (0.5%) were in line with the CS. Newly occurring notable transaminase increases were single in both ES (isolated ALT>3×ULN, normalized within 4 weeks, in 1 patient discontinued early for personal reasons) and CS (ALT>5×ULN in 1 patient, normalised on treatment).

[3] = 52-week open label extension study in CSU subjects (interim analyses); assay type: in vivo;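 note: Open-label extension assessing long-term safety and tolerability in CSU patients previously enrolled in the Phase 2b trial, dosed at 100 mg b.i.d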
Method: In a 52-week open label extension study to evaluate the long-term safety and tolerability of LOU064 in eligible subjects with CSU who participated in the Phase 2b study the dose used was 100 mg b.i.d.
Table 4 presents the safety summary observed in the Phase 2b study up to the cut-off date for the interim analysis.

BTK [4] = molecular target: T1, BTK (Homo sapiens, UniProt Q06187); assay: Phase I clinical study (Kaul et al. 2021): PK, BTK occupancy in blood, short-term safety; assay type: in vivo
T1 construct: simulate BTK occupancy in human spleen/tissues; from tissue; host or cells: human spleen / lymph node / peripheral tissue B cells (simulated, not measured)
Source text: BTK occupancy in blood is not an informative biomarker for the purpose of dose selection due to LOU064 pharmacological properties (irreversible binding). […] Occupancy in tissue may be more representative of the expected efficacy of LOU064.
Pharmacokinetic data from a Phase I clinical study reported by Kaul et al. (2021) were used in the current analysis, including 102 patients.
A population PK model has been developed to describe the interim PK from a Phase I clinical study reported by Kaul et al. (2021). […] Overall the resulting population model described the PK data reasonably well.

[5] = Co-administration of LOU064 with oral contraceptives; conditions: in vivo
Source text: Therefore, in a preferred embodiment, LOU064 is co-administered with oral contraceptives.

BTK [6] = molecular target: T1, BTK; conditions: single or multiple doses 0.5 mg to 600 mg up to 18 days; 100 and 200 mg b.i.d. up to 12 days; cited from earlier work
[7] = cited from earlier work
[8] = higher dose treatment arms; cited from earlier work
[9] = HS patients; cited from earlier work
HS explant cultures = conditions: cited from earlier work
B cells = conditions: case study; cited from earlier work
[10] = CS, CSU patients, Any dose, N = 267, listed as remibrutinib
[11] = 100 mg B.I.D., N = 100, interim analysis cut off 31 Aug. 2020
[12] = 100 mg b.i.d., N = 100 interim analysis
[13] = ES, CSU patients, 100 mg b.i.d., N = 183, median 35.14 wks, listed as remibrutinib
[14] = Phase 2b core and extension study

T1 sequence (Q06187 whole entry): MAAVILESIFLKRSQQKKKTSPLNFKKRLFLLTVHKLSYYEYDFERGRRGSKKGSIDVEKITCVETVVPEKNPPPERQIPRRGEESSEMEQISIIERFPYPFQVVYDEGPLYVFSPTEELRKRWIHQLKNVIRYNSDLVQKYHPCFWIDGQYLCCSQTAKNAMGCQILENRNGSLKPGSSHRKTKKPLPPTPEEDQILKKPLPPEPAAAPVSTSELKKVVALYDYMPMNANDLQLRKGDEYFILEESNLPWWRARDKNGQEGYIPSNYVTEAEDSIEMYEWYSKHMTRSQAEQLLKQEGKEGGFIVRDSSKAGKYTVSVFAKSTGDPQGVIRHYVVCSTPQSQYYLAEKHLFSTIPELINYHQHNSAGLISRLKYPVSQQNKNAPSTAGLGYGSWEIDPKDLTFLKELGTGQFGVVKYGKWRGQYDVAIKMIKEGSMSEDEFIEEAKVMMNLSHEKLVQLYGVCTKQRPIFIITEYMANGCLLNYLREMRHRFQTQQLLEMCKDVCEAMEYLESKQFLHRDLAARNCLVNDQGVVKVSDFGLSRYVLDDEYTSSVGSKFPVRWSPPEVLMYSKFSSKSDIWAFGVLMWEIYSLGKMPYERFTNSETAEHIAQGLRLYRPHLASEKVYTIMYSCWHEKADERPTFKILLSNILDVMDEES

In the case of `CC#CC(=O)N1CCC[C@H]1c1nc(-c2ccc(C(=O)Nc3ccccn3)cc2)c2c(N)nccn12` [Acalabrutinib], the “commonly observed adverse reactions” value [1] is listed as “infection, headache, and diarrhea”.
With `C=CC(=O)N(C)CCOc1c(N)ncnc1-c1cc(F)cc(NC(=O)c2ccc(C3CC3)cc2F)c1C` [LOU064, N-(3-(6-amino-5-(2-(N-methylacrylamido)ethoxy)pyrimidin-4-yl)-5-fluoro-2-methylphenyl)-4-cyclopropyl-2-fluorobenzamide] the “efficacy in CSU compared to the other doses” value ([2]; 25 mg b.i.d. regimen, 12 weeks, CSU inadequately controlled by antihistamines) was “particularly effective”, the “AEs by PT: Headache” value [2, 10] was 9.7% and the “AEs by primary system organ class: Infections and infestations” value [2, 10] was 24.0%. For the same compound, the “AEs by primary system organ class: Skin and subcutaneous tissue disorders” value (“AEs … Skin and subcutaneous tissue disorders” below) [2, 10] was 16.9%, the “Newly occurring notable transaminase increases: ALT>5×ULN, normalised on treatment” value ([2]; CS, any remibrutinib dose) was 1 patient and the Death [3, 11] was 0 n (%). For the same compound, the “Discontinued study due to an SAE(s)” value [3, 11] was 0 n (%), the “Discontinued study due to any AE(s)” value [3, 11] was 0 n (%) and the “Non-fatal SAE” value [3, 11] was 3 (3.0) n (%). For the same compound, the “Treatment interruption due to AE(s)” value [3, 11] was 5 (5.0) n (%), the “Treatment interruption due to SAE(s)” value [3, 11] was 1 (1.0) n (%) and the “Patients with AE(s)” value ([3]; 100 mg B.I.D., N = 100, interim analysis cut off 31 Aug. 2020, median exposure 17.86 weeks) was 58 (58) n (%). For the same compound, the safety signal ([3]; 100 mg b.i.d., 100 subjects, median exposure 17.86 weeks) was “No safety signal has been observed”, the “SAEs reported (ovarian cyst, chest pain, appendicitis; none related to study drug)” value [3, 12] was “Three” and the “SOC Infections and infestations” value [3, 12] was 14%. The “SOC Skin and subcutaneous tissue disorders” value [3, 12] was 13%, the “adverse event preferred term: diarrhea” value [3, 12] was 4% and the “adverse event preferred term: dizziness” value [3, 12] was 3%. The “adverse event preferred term: gastroenteritis” value [3, 12] was 3%, the “adverse event preferred term: headache” value [3, 12] was 6% and the “bleeding events or events under SOC Blood and lymphatic system disorders” value [3, 12] was “no bleeding events”. The “subjects who experienced at least one treatment emergent AE” value [3, 12] was 58%, the “dose-limiting liver enzyme elevations and other off-target-effects” value ([3]; 100 mg b.i.d., up to 52 weeks) was “does not induce any dose-limiting liver enzyme elevations and other off-target-effects” and the “Incidence of AESI: bleeding” value ([3]; ES, 100 mg b.i.d., N=183) was 4.4%. For the same compound, the “Incidence of AESI: cytopenias” value ([3]; ES, 100 mg b.i.d., N=183) was 0.5%, the “Incidence of AESI: infections” value ([3]; ES, 100 mg b.i.d., N=183) was 23% and the “Newly occurring notable transaminase increases: isolated ALT>3×ULN, normalized within 4 weeks” value ([3]; ES, 100 mg b.i.d., N=183) was 1 patient. For the same compound, the deaths ([3]; ES, 100 mg b.i.d., N=183, median 35.14 wks) was “no deaths”, the “AEs … Skin and subcutaneous tissue disorders” value ([3]; ES, CSU patients, 100 mg b.i.d., N = 183, median 35.14 wks) was 32 n and the “AEs by PT: Headache” value [3, 13] was 6.6%. For the same compound, the “AEs by primary system organ class: Infections and infestations” value [3, 13] was 23.0%, the “AEs … Skin and subcutaneous tissue disorders” value [3, 13] was 17.5% and the “Discontinued study treatment due to AE(s)” value [3, 13] was 6 n. The “Patients with SAE(s)” value [3, 13] was 4 n, the “ECG findings or QT of >500 ms” value [3, 14] was “no significant ECG findings or QT of >500 ms noted in any patient” and the “analysis of laboratory parameters” value [3, 14] was “did not reveal significant safety concerns”. For the same compound, the vital signs [3, 14] was “no clinically meaningful changes”, the “safety profile over longer-term exposure” value ([3]; whole dose range, 100 mg bid up to 52 wks, patients with CSU) was “no new safety signals” and the “change in clearance after repeated dosing” value (BTK [4]; doses lower than 50 mg, no difference at higher doses) was “lower clearance at steady state at Day 12 when compared to Day 1”. The “BTK occupancy in blood” value (BTK [4]; low doses) was “reaches full occupancy even at low doses”, the “impact on exposure and efficacy of co-administered oral contraceptives (ethinylestradiol or levonorgestrel)” value [5] was “without a major impact on their exposure and efficacy” and the Short-term safety (BTK [6]) was “has been shown”.
In the case of `C=CC(=O)N1CCC(CNc2ncnc(N)c2-c2ccc(Oc3ccccc3)cc2)CC1` [evobrutinib], the dose-limiting side effects ([7]; 75 mg b.i.d., Phase II clinical studies) is listed as “dose-limiting liver enzyme elevations”.
For `C[C@H]1CN(C2COC2)CCN1c1ccc(Nc2cc(-c3ccnc(N4CCn5c(cc6c5CC(C)(C)C6)C4=O)c3CO)cn(C)c2=O)nc1` [fenebrutinib], the “subjects with transient grade 3 elevations of ALT and/or AST” value [8] is given as 8.3% and 6.3%.
In the case of `C=CC(=O)N1CCC[C@@H](n2c(=O)n(-c3ccc(Oc4ccccc4)cc3)c3c(N)nccc32)C1` [tolebrutinib], the dose-limiting side effects ([7]; human, in vivo) is listed as “dose-limiting diarrhea”.
For adalimumab, the “patients with suboptimal therapeutic responses” value [9] is given as roughly 40%.
For “rituximab: B-cell depletor, CD20 antagonist”, the “effect in HS explant cultures” value (HS explant cultures) is given as “anti-inflammatory effects” and the “outcome of HS treatment using B-cell depletion” value (B cells) is given as “successful treatment of HS”.
